The results in this text go back to patent US20260274853A1, “BIFUNCTIONAL COMPOUNDS CONTAINING PYRIMIDINE DERIVATIVES FOR DEGRADING CYCLIN-DEPENDENT KINASE 2 VIA UBIQUITIN PROTEASOME PATHWAY” (NIKANG THERAPEUTICS, INC., priority 2022, published 2026).

Molecules are shown by their SMILES. Some results are limits rather than exact numbers.

In the assay the target is T1, CDK2 (Homo sapiens, UniProt P24941).
T1 construct: High-Throughput Measurement of Cellular Endogenous CDK2; endogenous in cells; host or cells: OVCAR3
Put plainly: Inhibition of CDK2: phospho-Rb (S807/811) HTRF measurement in OVCAR3 cells. Type of assay: cell-based. The following applies: 24 h compound treatment, read-out: pRb (nM), IC50 in pRB(S807/811) assay. How it is done:
Phosphorylation of RB protein at S807/811 were measured using HTRF phospho-RB cellular kits (Cat #64RBS807PEG) from Cisbio.
On Day 1, OVCAR3 (dependent on CDK2) cells were seeded into 96-well tissue-culture treated plates at 20,000 cells/well in 200 μL and incubated overnight at 37° C. in CO2 atmosphere. On Day 2, the cells were treated with test compounds at concentrations from 0.3 to 10,000 nM using HP D300 digital dispenser. Twenty-four hours after compound treatment, cell culture media was removed by flicking the plate and tapping the plate against clean paper towel. Immediately 30 μL 1× lysis buffer was supplemented from the kit and the plate was incubated at room temperature on shaker for 30 min. After homogenization by pipetting up and down, 8 μL cell lysate from 96-well cell culture plate was transferred to 384-well small volume white detection plate. 2 μL premixed detection solution was added and the plate was covered with sealer. To prepare the detection solution, d2 conjugated-phospho-RB antibody and Eu-cryptate conjugated phosphor-RB antibody were diluted into detection buffer following manufacturer's instruction. Detection plates were incubated for 4 h at room temperature and read on ClarioStar (BMG Labtech) in TR-FRET mode (665 nM and 620 nM). The TR-FRET ratio (665 nM/620 nM) was plotted against the compound concentration and normalized to DMSO controls. Half maximal inhibition concentration (IC50) values are calculated with a four-parameter logistic fit using GraphPad Prism (version 8; La Jolla, CA).
In the table below, A indicates a IC50 of less than 0.1 μM; B indicates a IC50 of greater than or equal to 0.1 μM but less than 0.5 μM; C indicates a IC50 of greater than or equal to 0.5 μM but less than 1 μM; and D indicates a […] of greater than or equal to 1 μM but less than 10 μM.
For the molecule `Cn1nc(N2CCC(=O)NC2=O)c2ccc(C3CCN(Cc4cccc(S(=O)(=O)N5CC[C@H](Nc6ncc(C(F)(F)F)c(-c7cnn(CC(F)F)c7)n6)[C@H](F)C5)c4)CC3)cc21` (racemic) [Example 37], the IC50 is less than 100 nM.

In the case of `O=C1CCC(N2Cc3cc(N4CCC(CN5CCN(c6cccc(S(=O)(=O)N7CCC(Nc8ncc(C(F)(F)F)c(-c9cnn(CC(F)(F)F)c9)n8)CC7)c6)CC5)CC4)ccc3C2=O)C(=O)N1` (stereo not drawn) [Example 45, 3-(1-oxo-5-(4-((4-(3-((4-((4-(1-(2,2,2-trifluoroethyl)-1H-pyrazol-4-yl)-5-(trifluoromethyl)pyrimidin-2-yl)-amino)-piperidin-1-yl)sulfonyl)-phenyl)piperazin-1-yl)methyl)-piperidin-1-yl)isoindolin-2-yl)-piperidine-2,6-dione], the IC50 was 100 to 500 nM.

On to `O=C1CCN(C2CCN(Cc3cccc(S(=O)(=O)N4CCC(Nc5ncc(C(F)(F)F)c(-c6cnn(CC(F)(F)F)c6)n5)CC4)c3)CC2)C(=O)N1` [Example 46], for which the IC50 was in the range of 100 to 500 nM.

For `O=C1CCC(Nc2ccc(N3CCN(Cc4cccc(S(=O)(=O)N5CCC(Nc6ncc(C(F)(F)F)c(-c7cnn(CC(F)(F)F)c7)n6)CC5)c4)CC3)cc2)C(=O)N1` (stereo not drawn) [Example 53], the IC50 is less than 100 nM.

As for `Cn1nc(N2CCC(=O)NC2=O)c2ccc(C3CCN(Cc4cc(S(=O)(=O)N5CCC(Nc6ncc(C(F)(F)F)c(-c7cnn(CC(F)(F)F)c7)n6)CC5)ccc4C(F)(F)F)CC3(F)F)cc21` (stereo not drawn) [Example 55], the IC50 lay within 1000 to 10000 nM.

On to `O=C1CCC(N2CCN(Cc3cccc(S(=O)(=O)N4CCC(Nc5ncc(C(F)(F)F)c(-c6cnn(CC(F)(F)F)c6)n5)CC4)c3)C3CC32)C(=O)N1` (stereo not drawn) [Example 63, 3-(5-(3-((4-((4-(1-(2,2,2-trifluoro-ethyl)-1H-pyrazol-4-yl)-5-(trifluoromethyl)-pyrimidin-2-yl)amino)-piperidin-1-yl)-sulfonyl)benzyl)-2,5-diazabicyclo[4.1.0]-heptan-2-yl)-piperidine-2,6-dione], for which the IC50 is 100 to 500 nM.

On to `Cn1nc(N2CCC(=O)NC2=O)c2ccc(C3CCN(Cc4cccc(S(=O)(=O)N5CC[C@@H](Nc6ncc(C(F)(F)F)c(-c7cnn(CC(F)(F)F)c7)n6)[C@@H](F)C5)c4)CC3(F)F)cc21` (stereo partly drawn) [Example 66, 1-(6-(3,3-difluoro-1-(3-(((3S,4R)-3-fluoro-4-((4-(1-(2,2,2-trifluoroethyl)-1H-pyrazol-4-yl)-5-(trifluoromethyl)-pyrimidin-2-yl)amino)piperidin-1-yl)-sulfonyl)benzyl)piperidin-4-yl)-1-methyl-1H-indazol-3-yl)dihydro-pyrimidine-2,4(1H,3H)-dione], for which the IC50 lay within 1000 to 10000 nM.

On to `O=C1CCN(c2ccc(N3CCN(Cc4cccc(S(=O)(=O)N5CCC(Nc6ncc(C(F)(F)F)c(-c7cnn(-c8ccccc8F)c7)n6)CC5)c4)CC3)cc2)C(=O)N1` [Example 71, 1-(4-(4-(3-((4-((4-(1-(2-fluorophenyl)-1H-pyrazol-4-yl)-5-(trifluoromethyl)-pyrimidin-2-yl)amino)piperidin-1-yl)sulfonyl)benzyl)piperazin-1-yl)-phenyl)dihydropyrimidine-2,4(1H,3H)-dione], for which the IC50 was in the range of 100 to 500 nM.

Regarding `O=C1CCC(N2CCN(Cc3cccc(S(=O)(=O)N4CCC(Nc5ncc(C(F)(F)F)c(-c6cnn(CC(F)(F)F)c6)n5)CC4)c3)CC2)C(=O)N1` (stereo not drawn) [Example 76, 3-(4-(3-((4-((4-(1-(2,2,2-trifluoro-ethyl)-1H-pyrazol-4-yl)-5-(trifluoromethyl)-pyrimidin-2-yl)amino)-piperidin-1-yl)-sulfonyl)benzyl)piperazin-1-yl)-piperidine-2,6-dione], the IC50 lay within 100 to 500 nM.

Consider `O=C1CCN(C2CCCN(Cc3cccc(S(=O)(=O)N4CCC(Nc5ncc(C(F)(F)F)c(-c6cnn(CC(F)(F)F)c6)n5)CC4)c3)C2)C(=O)N1` (stereo not drawn) [Example 80, 1-(1-(3-((4-((4-(1-(2,2,2-trifluoro-ethyl)-1H-pyrazol-4-yl)-5-(trifluoromethyl)-pyrimidin-2-yl)amino)-piperidin-1-yl)sulfonyl)benzyl)-piperidin-3-yl)dihydropyrimidine-2,4(1H,3H)-dione], for which the IC50 fell in the range of 100 to 500 nM.

For the molecule `Cn1nc(N2CCC(=O)NC2=O)c2ccc(N3CC4CCC(C3)N4Cc3cccc(S(=O)(=O)N4CC[C@H](Nc5ncc(C(F)(F)F)c(-c6cnn(CC(F)(F)F)c6)n5)[C@H](F)C4)c3)cc21` [Example 85, 1-(6-(8-(3-(((3R,4S)-3-fluoro-4-((4-(1-(2,2,2-trifluoroethyl)-1H-pyrazol-4-yl)-5-(trifluoromethyl)pyrimidin-2-yl)-amino)-piperidin-1-yl)sulfonyl)benzyl)-3,8-diazabicyclo[3.2.1]octan-3-yl)-1-methyl-1H-indazol-3-yl)dihydro-pyrimidine-2,4(1H,3H)-dione], the IC50 lay within 100 to 500 nM.

For `Cn1nc(N2CCC(=O)NC2=O)c2ccc(C3CCN(Cc4cccc(S(=O)(=O)N5CCC(Nc6ncc(C(F)(F)F)c(-c7cnn(CC(F)(F)F)c7)n6)CC5)c4C(F)(F)F)CC3)cc21` [Example 87, 1-(1-methyl-6-(1-(3-((4-((4-(1-(2,2,2-trifluoroethyl)-1H-pyrazol-4-yl)-5-(trifluoromethyl)pyrimidin-2-yl)-amino)-piperidin-1-yl)sulfonyl)-2-(trifluoro-methyl)benzyl)piperidin-4-yl)-1H-indazol-3-yl)dihydro-pyrimidine-2,4(1H,3H)-dione], the IC50 lay within 500 to 1000 nM.

Regarding `Cn1nc(N2CCC(=O)NC2=O)c2ccc(C3CCN(C(c4cccc(S(=O)(=O)N5CCC(Nc6ncc(C(F)(F)F)c(-c7cnn(CC(F)(F)F)c7)n6)CC5)c4)C(F)(F)F)CC3)cc21` (stereo not drawn) [Example 91, 1-(1-methyl-6-(1-(2,2,2-trifluoro-1-(3-((4-((4-(1-(2,2,2-trifluoroethyl)-1H-pyrazol-4-yl)-5-(trifluoromethyl)-pyrimidin-2-yl)amino)piperidin-1-yl)-sulfonyl)phenyl)ethyl)piperidin-4-yl)-1H-indazol-3-yl)dihydro-pyrimidine-2,4(1H,3H)-dione], the IC50 was in the range of 100 to 500 nM.

For `Cn1nc(N2CCC(=O)NC2=O)c2ccc(C3CCN(CC4CCN(S(=O)(=O)[C@H]5CC[C@H](Nc6ncc(C(F)(F)F)c(-c7cnn(CC(F)(F)F)c7)n6)CC5)CC4)CC3)cc21` [Example 94, 1-(1-methyl-6-(1-((1-(((1r,4r)-4-((4-(1-(2,2,2-trifluoroethyl)-1H-pyrazol-4-yl)-5-(trifluoromethyl)pyrimidin-2-yl)-amino)cyclohexyl)sulfonyl)piperidin-4-yl)methyl)piperidin-4-yl)-1H-indazol-3-yl)dihydropyrimidine-2,4(1H,3H)-dione], the IC50 was 100 to 500 nM.

As for `Cn1nc(N2CCC(=O)NC2=O)c2ccc(C3CCN(CCc4cccc(S(=O)(=O)[C@H]5CC[C@H](Nc6ncc(C(F)(F)F)c(-c7cnn(CC(F)(F)F)c7)n6)CC5)c4)CC3)cc21` [Example 95, 1-(1-methyl-6-(1-(3-(((1r,4r)-4-((4-(1-(2,2,2-trifluoroethyl)-1H-pyrazol-4-yl)-5-(trifluoromethyl)pyrimidin-2-yl)-amino)-cyclohexyl)sulfonyl)phenethyl)piperidin-4-yl)-1H-indazol-3-yl)dihydro-pyrimidine-2,4(1H,3H)-dione], the IC50 fell in the range of 100 to 500 nM.
